{"source": "patent US6004999A", "about": "“Triptolide derivatives useful in the treatment of autoimmune diseases” (priority 1998, dated 1999)", "key": {"[1]": {"tested_on": "rat model of adjuvant-induced arthritis", "test": "Anti-inflammatory activity in the rat model of adjuvant-induced arthritis", "assay_type": "in vivo, rat (male Wistar-Lewis)", "conditions": "12 consecutive days", "protocol": "(§1) Following generally the procedure of Pearson and Wood, Arth. Rheum., 2, 44 (1959), the anti-inflammatory activity of the following compounds was determined in a rat model of adjuvant-induced arthritis. Male Wistar-Lewisrats (Mollegaard, Breeding Centre Ltd, BIBY, DK 4623 LI, SKENSVED, P.P. Box 28, DK) with a body weight between 160 g and 200 g are used. Freund's adjuvant (0.1 mL, 6 mg Mycobacterium smegmatis suspension per mL in heavy white paraffin oil, Merck/Darmstadt) was injected into the base of the tail. Between day 10 and day 14 of the test, immunopathological processes let to chronic inflammation, especially in the form of arthritic and periarthritic symptoms in all parts of the body. The animals received standardized food Altromin-R (Altrogge, Lage) and had free access to water. The compounds were administered i.p. (a suspension in carboxymethyl cellulose solution in an injection volume of 0.5 mL/100 g body weight) on 12 consecutive days, starting with the day of the adjuvant injection. On day 1 and day 18 of the study, the volume of both hind paws and the body weight were recorded, and in addition on day 18 the arthritis index. Cyclosporin A and Prednisolone were used as standard compounds. In addition, table IV presents the percent change in body weight (weight gain) between day 1 and day 21 of the above test."}, "[2]": {"test": "Percent change in body weight in the adjuvant-induced arthritis rat test", "assay_type": "in vivo, rat (male Wistar-Lewis)", "conditions": "between day 1 and day 21, arthritic CMC control 17.9, normal non-arthritic animals 32.0", "protocol": "as §1"}, "[3]": {"tested_on": "immunosuppressive activity", "conditions": "in conjunction with another immunosuppressive agent (cyclosporin A, FK506, etc.); WO 94/26265; cited from earlier work"}, "IL-2 production": {"tested_on": "IL-2 production", "test": "Interleukin-2 assay: IL-2 production by PHA/TPA-stimulated cells (ELISA)", "assay_type": "cell-based, human", "conditions": "PHA 10 μg/mL and 10^-8 M TPA stimulation; 16-24 hours", "protocol": "(§2) Jurkat E6-1 cell line (ATCC), a human leukemic T cell line or lymphocytes prepared from fresh human blood, are grown in complete culture medium consisting of RPMI-1640 (Mediatech) supplemented with 10% v/v fetal bovine serum (HyClone, Logen, Vermont), penicillin (100 units/mL), streptomycin ([…]), and 2mM L-glutamine (GIBCO, Grand Island, N.Y.). The cells are grown to a concentration of between 1.2 to 1.8×10^6 cells/mL before use. The cells are then centrifuged at low speed and resuspended to a concentration of 1.25×10^6 cells/mL in fresh medium.\n(§3) The compounds to be tested are dissolved in DMSO, and water is added to make a 50% DMSO/water solution. The compounds are then diluted in sterile water such that the DMSO concentrations are less then 0.05%. The cells at a concentration of 1.25×10^6 cells/mL are stimulated with phytohemagglutinin 10 μg/mL (PHA) and 10^-8 M phorbol ester (12-O-tetradecanoylphorbol 13-acetate: TPA), (Sigma, St. Louis, Mo.). The compounds are then added and the cells are plated in flat-bottom tissue culture plates (Falcon, Lincoln Park, N.J.), with 250,000 cells/well. Plates are then incubated at 37° C. in a 5% CO2 atmosphere.\nAfter incubation (16-24 hours), the cells are assayed for IL-2 production and cell viability (MTT). IL-2 production is assayed utilizing a solid phase ELISA immunoassay, sold in kit form by R&D Systems, Inc., Minneapolis, Minn."}, "[4]": {"tested_on": "Jurkat E6-1 cell line or lymphocytes prepared from fresh human blood", "test": "Cell viability (MTT mitochondrial enzyme assay)", "assay_type": "cell-based", "conditions": "cell viability after 16-24 hours incubation; MTT 4 hours", "protocol": "as §2, §3\nCell viability is measured by the use of a mitochondrial enzyme assay. After removal of the supernatant for the IL-2 assay, Cell Titer 96 (a commercial solution of MTT obtained from Promega, Madison, Wis.), is added to the plates and incubated for 4 hours at 37° C. A solubilization solution is then added and incubated overnight. The plates are then read on an ELISA plate reader at a wavelength of 570 nm. Table II presents the results for the lnterleukin-2 assay, the cell viability assay and the ratio of cell viability/IL-2 inhibition."}, "lymphocyte proliferation": {"tested_on": "lymphocyte proliferation", "conditions": "Yang et al. 1992, 1994; cited from earlier work"}}, "data": [{"molecule": "C[C@]12C=CC(=O)C=C1CC[C@@H]1[C@@H]2[C@@H](O)C[C@@]2(C)[C@H]1CC[C@]2(O)C(=O)CO", "note": "[Prednisolone]", "values": [{"measurement": "% Inhibition", "setting": "[1]; 15 mg/kg/day i.p.", "value": 100, "unit": "%"}, {"measurement": "% Change in Body Weight (weight gain)", "setting": "[2]; 15 mg/kg/day i.p.", "value": 14.2, "unit": "%"}]}, {"molecule": "C[C@@H](CO)[C@]12O[C@H]1[C@@H]1O[C@]13[C@]1(O[C@H]1C[C@H]1C4=C(CC[C@@]13C)C(=O)OC4)[C@@H]2O", "note": "[16-hydroxytriptolide]", "values": [{"measurement": "immunosuppressive activity", "setting": "[3]", "value": "increase in immunosuppressive activity relative to the sum of the effects"}]}, {"molecule": "CC(C)C12OC1C1OC13C1(C)CCC4=C(COC4=O)C1CCC3(O)C2O", "note": "(stereo not drawn) [Example 1, [5aR-(5aα,6α,6aα,7aα,7bβ,8aS*,8bα)]-3,3b,4,5,5a,6,6a,7a,7b,8b,9,10-dodecahydro-5a,6-dihydroxy-8b-methyl-6a-(1-methylethyl)-1H-bisoxireno[4b,5:6,7]phenanthro[1,2-c]furan-1-one]", "values": [{"measurement": "IC50 /IL-2", "setting": "IL-2 production", "value": 36, "unit": "ng/mL"}, {"measurement": "% Inhibition", "setting": "[1]; 10 mg/kg/day i.p.", "value": 90, "unit": "%"}, {"measurement": "% Change in Body Weight (weight gain)", "setting": "[2]; 10 mg/kg/day i.p.", "value": 29.9, "unit": "%"}]}, {"molecule": "[1S (1α, 2β,3α, 3aβ,4aR*,4bα, 11aα)1-3-chloro-1, 2,3,3a,4b,5,6,9,9b, 10,11,11a-dodecahydro-1,2,11a-trihydroxy-4b-methyl-2-(1 -methylethyl)-7H-oxireno[4b,5]phenanthro [1,2-c]furan-7-one [Example 2]", "values": [{"measurement": "IC50 /IL-2", "setting": "IL-2 production", "value": 60, "unit": "ng/mL"}, {"measurement": "IC50 /MTT", "setting": "[4]", "value": 550, "unit": "ng/mL"}]}, {"molecule": "CC(C)[C@]12O[C@H]1[C@@H]1O[C@]13[C@]1(O[C@H]1C[C@H]1C4=C(CC[C@@]13C)C(=O)OC4)[C@@H]2O", "note": "[Triptolide]", "values": [{"measurement": "IC50 /MTT", "setting": "[4]", "value": 5, "unit": "ng/mL"}, {"measurement": "% Inhibition", "setting": "[1]; 0.2 mg/kg/day i.p.", "value": 70, "unit": "%"}, {"measurement": "% Inhibition", "setting": "[1]; 0.4 mg/kg/day i.p.", "value": 85, "unit": "%"}, {"measurement": "% Inhibition", "setting": "[1]; 0.8 mg/kg/day i.p.", "value": 76, "unit": "%"}, {"measurement": "% Change in Body Weight (weight gain)", "setting": "[2]; 0.2 mg/kg/day i.p.", "value": 17.2, "unit": "%"}, {"measurement": "% Change in Body Weight (weight gain)", "setting": "[2]; 0.4 mg/kg/day i.p.", "value": 22.0, "unit": "%"}, {"measurement": "% Change in Body Weight (weight gain)", "setting": "[2]; 0.8 mg/kg/day i.p.", "value": 18.0, "unit": "%"}, {"measurement": "suppress lymphocyte proliferation", "setting": "lymphocyte proliferation", "value": "suppress lymphocyte proliferation"}]}, {"molecule": "[1S-(1α, 2β, 3α, 3aβ,4aR, 4bα, 11β, 11aα)-3-chloro-1, 2,3,3a,4b,5,6,9,9b, 10,11,11a-dodecahydro-1,11a-dihydroxy-4b-methyl-2-(1-methylethyl)-2,11 -epoxy-7oxireno[4b,5]phenanthro[1,2-c]furan-7-one [Example 3]", "values": [{"measurement": "IC50 /IL-2", "setting": "IL-2 production", "value": 140, "unit": "ng/mL"}, {"measurement": "IC50 /MTT", "setting": "[4]", "value": "> 1,000 ng/mL"}]}, {"molecule": "Cyclosporin A", "values": [{"measurement": "% Inhibition", "setting": "[1]; 10 mg/kg/day i.p.", "value": 100, "unit": "%"}, {"measurement": "% Change in Body Weight (weight gain)", "setting": "[2]; 10 mg/kg/day i.p.", "value": 27.2, "unit": "%"}]}]}
